Read-outs that look alike come from different tables or passages of the source.
Tests used:
PC12 cells [1] = assay: Reversal of Aβ1-42-induced ATP depletion (ATPLite-M assay); details: for ATP decrease induced by Aβ1-42, Aβ1-42 control = 100% reduction: 24 h pre-incubation, 24 h; for effect on Aβ1-42-induced ATP decrease, in words: compound 1-100 μM, Aβ1-42 0.1-10 μM
PC12 cells [2] = assay: Aβ1-42-induced free radical production (2,7-DCF fluorescent probe); details: compound 1-100 μM 24 h pre-incubation; Aβ1-42 0.1-10 μM 24 h
PC12 cells [3] = assay: Glutamate-induced excitotoxicity, MTT assay; type: cell-based, rat; details: glutamate 100 μM 24 h
PC12 cells [4] = assay: Neuroprotection against Aβ1-42 cytotoxicity, MTT assay (NADPH diaphorase activity); type: cell-based, rat
HMG-CoA reductase mRNA = HMG-CoA reductase mRNA synthesis, real-time quantitative PCR; type: cell-based, rat; details: Aβ1-42 1 μM, 24 h, compared to control PC12 cells
[5] = compound 1-100 μM, Aβ1-42 0.1-10 μM

Compound	ATP decrease induced by Aβ1-42, Aβ1-42 control = 100% reduction (PC12 cells [1]; compound 1 μM, Aβ1-42 0.1 μM) [%]	ATP decrease induced by Aβ1-42, Aβ1-42 control = 100% reduction (PC12 cells [1]; compound 1 μM, Aβ1-42 1 μM) [%]	ATP decrease induced by Aβ1-42, Aβ1-42 control = 100% reduction (PC12 cells [1]; compound 1 μM, Aβ1-42 10 μM) [%]	ATP decrease induced by Aβ1-42, Aβ1-42 control = 100% reduction (PC12 cells [1]; compound 10 μM, Aβ1-42 0.1 μM) [%]	ATP decrease induced by Aβ1-42, Aβ1-42 control = 100% reduction (PC12 cells [1]; compound 10 μM, Aβ1-42 1 μM) [%]	ATP decrease induced by Aβ1-42, Aβ1-42 control = 100% reduction (PC12 cells [1]; compound 10 μM, Aβ1-42 10 μM) [%]	ATP decrease induced by Aβ1-42, Aβ1-42 control = 100% reduction (PC12 cells [1]; compound 100 μM, Aβ1-42 0.1 μM) [%]	ATP decrease induced by Aβ1-42, Aβ1-42 control = 100% reduction (PC12 cells [1]; compound 100 μM, Aβ1-42 1 μM) [%]	ATP decrease induced by Aβ1-42, Aβ1-42 control = 100% reduction (PC12 cells [1]; compound 100 μM, Aβ1-42 10 μM) [%]	effect on Aβ1-42-induced ATP decrease, in words (PC12 cells [1])	effect on Aβ1-42-induced free radical production, in words (PC12 cells [2])	neuroprotective effect against glutamate-induced cell death (MTT), in words (PC12 cells [3]; compound 0.3-30 μM 24 h pre-incubation)	concentration of maximum (peak) protective effect against glutamate (PC12 cells [3]; compound tested at 0.3-30 μM) [µM]	protective effect against Aβ1-42 neurotoxicity (MTT), in words (PC12 cells [4]; [5])	efficacy range, inhibition of Aβ1-42 toxicity (mitochondrial diaphorase activity) (PC12 cells [4])	protective effect against Aβ1-42 neurotoxicity (MTT), in words (PC12 cells [4])	HMG-CoA mRNA synthesis (HMG-CoA reductase mRNA) [times the control level]
CCN(CC)CC(=O)Nc1c(C)cccc1C [Lidocaine, (2-diethylamino)-N-(2,6-dimethylphenyl)-acetamide]	38.7 ± 26.1	62.0 ± 8.5	53.5 ± 20.3	47.2 ± 28.7	69.0 ± 13.0	65.0 ± 7.6	65.3 ± 45.2	81.3 ± 8.7	70.1 ± 4.8	restored ATP concentrations in PC12 cells exposed to 0.1 and 1 μM Aβ1-42	exhibited a trend to reduce the Aβ1-42-induced free radical production	–	–	–	–	–	–
CCN(CC)CCNC(=O)c1ccc(N)cc1 [Procainamide]	46.8 ± 25.9	51.4 ± 17.3	56.5 ± 11.6	60.4 ± 5.8	61.7 ± 10.8	56.2 ± 6.1	40.9 ± 14.5	40.8 ± 6.5	52.2 ± 10.2	significantly prevented the Aβ1-42-induced decrease of intracellular ATP levels	exhibited a trend to reduce the Aβ1-42-induced free radical production	–	–	–	–	–	–
CCN1CCN(OC(=O)c2ccc(OC)c(OC)c2OC)CC1 [SP008, (4-ethylpiperazinyl-1-yl)-2′,3′,4′-trimethoxybenzoate]	–	–	–	–	–	–	–	–	–	–	–	more important than that of procaine effect at the same concentration	3	–	–	–	–
CC(=O)OC1CC(O)C2(C)C(OC(C)=O)C3C(CC(C)C12)OC(=O)C3CN1CCN(C(=O)c2ccccc2)CC1 (stereo not shown) [SP015, Acetic acid 7-acetoxy-3-(4-benzoyl-piperazin-1-yl-methyl)-5-hydroxy-4a, 8-dimethyl-2-oxo-dodecahydro-azuleno[6,5-b]furan-4-yl ester]	46.3 ± 10.1	55.6 ± 5.3	32.8 ± 9.4	99.2 ± 13.1	124 ± 24.7	104 ± 22.5	91.5 ± 1.5	85.6 ± 12.3	73.8 ± 6.8	able to reverse the effect of Aβ1-42 on ATP	amplified the Aβ1-42-induced free radicals production	–	–	protected only at 1 and 10 μM concentrations against the highest concentration of Aβ1-42	–	–	–
CC(=O)OC1CC(OC(C)=O)C2(C)C(O)C3C(CC(C)C12)OC(=O)C3CN1CCN(C(=O)c2ccccc2)CC1 (stereo not shown) [SP016, acetic acid 5-acetoxy-3-(4-benzoyl-piperazin-1-yl-methyl)-4-hydroxy-4a, 8-dimethyl-2-oxo-dodecahydro-azuleno[6,5-b]furan-7-yl ester]	49.5 ± 10.2	81.5 ± 4.2	96.8 ± 30.6	101 ± 7.8	105 ± 10.1	110 ± 10.1	86.3 ± 15.7	100 ± 17.8	121 ± 29.0	–	amplified the Aβ1-42-induced free radicals production	–	–	no protective activity	–	–	–
CC1=CCC23OC2(C)CCC2C(CN4CCN(C(=O)c5ccccc5)CC4)C(=O)OC2C13 (stereo not shown) [SP017, 3-(4-benzoyl-piperazin-1-yl-methyl)-6,6a-epoxy-6,9-dimethyl-3a,4,5,6,6a,7,9a,9b-octahydro-3H-azuleno[4,5-b]furan-2-one]	28.1 ± 7.2	42.6 ± 5.8	73.0 ± 12.1	54.9 ± 15.6	44.9 ± 8.1	68.9 ± 7.3	115 ± 21.4	108 ± 20.8	122 ± 6.7	able to reverse the effect of Aβ1-42 on ATP	amplified the Aβ1-42-induced free radicals production	–	–	at 100 μM potentiated the toxic effect of Aβ1-42	30-70%	–	–
CCCCNc1ccc(C(=O)OCCN(C)C)cc1 [Tetracaine]	54.8 ± 4.0	32.2 ± 5.5	45.5 ± 6.1	59.5 ± 9.6	58.0 ± 18.9	41.9 ± 4.2	59.3 ± 10.5	45.4 ± 2.2	45.8 ± 6.5	significantly prevented the Aβ1-42-induced decrease of intracellular ATP levels	exhibited a trend to reduce the Aβ1-42-induced free radical production	–	–	–	–	–	–
(+)-MK801	–	–	–	–	–	–	–	–	–	–	–	–	–	–	–	lessens in a dose-dependent manner PC12 cell viability decrease induced by Aβ1-42	–
Aβ1-42: 42 amino acid β-amyloid peptide purchased from American Peptide Co., used as neurotoxic insult	–	–	–	–	–	–	–	–	–	–	–	–	–	–	–	–	1.48±0.17

From US20090286876A1, “NEUROPROTECTIVE BENZOATE AND BENZAMIDE COMPOUNDS” (Samaritan Pharmaceuticals, Inc., priority 2003, published 2009)
